From patent publication US20160193202A1, “THERAPEUTIC TREATMENT FOR DRUG POISONING AND ADDICTION” (ADISPELL, INC., priority 2013, published 2016)
pKd: −log10 of the molar value. Values joined by “and” are separate entries in the source; they are usually repeats but may differ in a detail not shown here. Identical values can stand only once. “Also recorded” adds a separate entry of the source. Like-named read-outs stand apart in the source and are kept apart here.

Legend:
[1] = target: T1, BC3H1 nicotinic acetylcholine receptor (Mus musculus, UniProt P02716+P04756+P04760+P09690); conditions: 100 μM carbamoylcholine, cited from earlier work
T1 construct: endogenous in cells; host or cells: BC3H1 cells
T1 sequence (P04756 21-457): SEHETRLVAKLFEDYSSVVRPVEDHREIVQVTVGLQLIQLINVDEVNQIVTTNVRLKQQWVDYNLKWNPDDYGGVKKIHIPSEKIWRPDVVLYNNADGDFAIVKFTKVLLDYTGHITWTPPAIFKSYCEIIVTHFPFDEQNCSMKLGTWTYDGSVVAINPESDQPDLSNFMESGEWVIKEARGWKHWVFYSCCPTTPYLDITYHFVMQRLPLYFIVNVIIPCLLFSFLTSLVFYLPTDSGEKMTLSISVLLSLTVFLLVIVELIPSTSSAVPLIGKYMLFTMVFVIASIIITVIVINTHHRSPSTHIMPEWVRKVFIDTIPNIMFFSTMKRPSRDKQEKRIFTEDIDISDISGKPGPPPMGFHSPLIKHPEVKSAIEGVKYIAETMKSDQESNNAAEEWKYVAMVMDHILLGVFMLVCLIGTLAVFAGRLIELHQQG
T1 sequence (P09690 24-501): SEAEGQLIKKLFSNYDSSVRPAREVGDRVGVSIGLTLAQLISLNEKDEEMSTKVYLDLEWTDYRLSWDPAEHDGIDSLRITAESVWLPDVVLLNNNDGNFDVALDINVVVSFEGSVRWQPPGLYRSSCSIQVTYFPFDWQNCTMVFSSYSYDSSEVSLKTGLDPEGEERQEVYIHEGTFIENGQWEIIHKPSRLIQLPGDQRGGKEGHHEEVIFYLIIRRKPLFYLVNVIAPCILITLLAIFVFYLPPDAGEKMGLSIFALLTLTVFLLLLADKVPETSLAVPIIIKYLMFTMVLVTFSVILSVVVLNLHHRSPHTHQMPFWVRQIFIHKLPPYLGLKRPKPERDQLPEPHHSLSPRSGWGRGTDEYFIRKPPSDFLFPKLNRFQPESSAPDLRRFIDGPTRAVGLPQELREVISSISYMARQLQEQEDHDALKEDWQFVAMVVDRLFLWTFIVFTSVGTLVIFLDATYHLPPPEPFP
T1 sequence (P04760 23-519): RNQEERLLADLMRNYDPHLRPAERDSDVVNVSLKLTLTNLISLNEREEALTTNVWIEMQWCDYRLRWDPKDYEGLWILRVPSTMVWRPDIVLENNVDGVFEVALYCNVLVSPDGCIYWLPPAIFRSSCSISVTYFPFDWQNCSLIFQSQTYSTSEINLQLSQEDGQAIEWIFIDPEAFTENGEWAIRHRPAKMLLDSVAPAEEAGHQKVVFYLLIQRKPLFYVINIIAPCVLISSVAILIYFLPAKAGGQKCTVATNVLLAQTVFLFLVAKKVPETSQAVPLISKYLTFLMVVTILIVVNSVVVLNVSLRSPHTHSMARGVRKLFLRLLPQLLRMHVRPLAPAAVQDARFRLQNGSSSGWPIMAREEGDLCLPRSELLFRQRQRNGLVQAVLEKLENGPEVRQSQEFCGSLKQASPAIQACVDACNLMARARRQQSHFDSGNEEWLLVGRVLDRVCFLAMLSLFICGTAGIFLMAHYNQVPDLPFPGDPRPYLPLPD
T1 sequence (P02716 25-520): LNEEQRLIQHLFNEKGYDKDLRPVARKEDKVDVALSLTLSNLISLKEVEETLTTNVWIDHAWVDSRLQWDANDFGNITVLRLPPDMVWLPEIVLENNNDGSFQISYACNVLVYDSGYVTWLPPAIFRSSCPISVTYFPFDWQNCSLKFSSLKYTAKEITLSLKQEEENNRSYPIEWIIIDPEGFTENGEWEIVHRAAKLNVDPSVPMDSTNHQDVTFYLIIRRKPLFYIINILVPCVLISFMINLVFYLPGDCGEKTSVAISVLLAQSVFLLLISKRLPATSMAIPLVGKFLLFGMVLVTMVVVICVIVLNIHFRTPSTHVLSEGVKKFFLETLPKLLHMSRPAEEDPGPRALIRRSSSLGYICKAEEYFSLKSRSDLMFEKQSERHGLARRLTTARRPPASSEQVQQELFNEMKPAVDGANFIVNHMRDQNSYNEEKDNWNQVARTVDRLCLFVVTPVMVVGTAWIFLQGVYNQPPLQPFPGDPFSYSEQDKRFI

[2] = target: nicotinic acetylcholine receptor (Mus musculus, UniProt P02716+P04756+P04760+P09690); conditions: cited from earlier work
Chain of nicotinic acetylcholine receptor (P04756 21-457): as the sequence (P04756 21-457) above
Chain of nicotinic acetylcholine receptor (P09690 24-501): as the sequence (P09690 24-501) above
Chain of nicotinic acetylcholine receptor (P04760 23-519): as the sequence (P04760 23-519) above
Chain of nicotinic acetylcholine receptor (P02716 25-520): as the sequence (P02716 25-520) above

rats = assay: Morris water maze probe trial with scopolamine; format: in vivo, rat; conditions: for Morris water maze individual swimming trace, finding of target area: individual rat, FIGS. 1A-1C
From the text: The Morris water maze for rats (San Diego Instruments) uses a 70 inch diameter swimming tank, in which rats, one at a time, are placed to determine the swimming time taken to find a platform, which can be visible or submerged, and is placed randomly in the tank, with its position locatable by means of navigation in response to visible clues. A video camera is positioned to record the swimming path of the rat, and computer analysis of the path permits accurate assessment of elapsed time, distance traveled, and route taken to achieve particular objectives. This technique is used to study memory, learning and spatial working, in healthy, diseased, and drug-affected states. The test can be applied acutely (probe test) or can involve considerable training and repeat measure experimental designs. The term “latency” in the context of the Morris water maze is used to depict the relation of time taken to escape from the water (Morris R., “Development of a Water-Maze Procedure for Studying Spatial Learning in The Rat,” Journal of Neuroscience Methods 11:47-60 (1984) and Wongwitdecha et al., “Effects of Social Isolation Rearing on Learning in the Morris Water Maze,” Brain Research 715:119-124 (1996), both of which are hereby incorporated by reference in their entirety).
This was a single dose probe trial in normal healthy rats with the objective of determining whether: (a) there is an effect in raising cognitive efficiency in unimpaired rats and (b) impairment caused by scopolamine can be reversed by EME.
FIGS. 1A-1C show three individual swimming traces for rats treated with a control vehicle (FIG. 1A), a combined dose of ecgonine methyl ester (EME) (10 mg/kg) and scopolamine (1 mg/kg) (FIG. 1B), and a single dose of scopolamine (1 mg/kg) (FIG. 1C). The target area was in the “south west” or bottom left quadrant of the bath. […] This observation was significant (p<0.05).
The group results in this probe trial with vehicle (VEH), EME alone, scopolamine alone, and EME plus scopolamine in the acute dose Morris water maze experiment are shown in FIG. 2. In particular, column 1 depicts the probe test results for the vehicle, column 2 depicts probe test results for EME alone, column 3 depicts probe test results for scopolamine alone, and column 4 depicts probe test results for EME in combination with scopolamine.

[3] = Brain and plasma concentrations after 10 mg/kg intraperitoneal doses (GC-MS)
Experimental: (§1) Plasma and Brain Concentrations after Intraperitoneal Doses—Twenty young adult rats in groups of four were given intraperitoneal doses of 10 mg/kg, and killed and dissected at various times after dosing. Brain and plasma concentrations were assessed by GC-MS. Samples were pre-dose, and at 1, 2, 4 and 24 hours after the dose. Each point is the mean value from four rats.

mice = mice pretreated with EME 50 mg/kg, 126 mg/kg cocaine five minutes later; survivors/animals; cited from earlier work
in vivo = conditions: rat, brain and plasma, ip, 10 mg/kg
Experimental: as §1

[4] = read-out: KD(Alv), range where effects of multiple Class 1 compounds were alleviated
[5] = range where effects of multiple Class 1 compounds were alleviated, read-out: KD(Alv)

**Q.** For “aptamer 3: Class 2 RNA aptamer, SEQ ID NO:56 (AGUAGGAAUACCCCCAUCCAAAGCUCGCUAGGCUGAACAC; RNA, backbone not given here)”, which “Effect on whole-cell current generated by carbamoylcholine” value ([1]; 5 μM aptamer, −60 mV, 22° C., pH 7.4, no inhibitor) is on record?
**A.** The value was “no effect”.

**Q.** With CN1C2CCC1C(C(=O)O)C(c1ccc(Cl)cc1)C2 (stereo not shown) [RTI Compound] as the compound, how does the pKd [2, 4] read?
**A.** Its pKd is 4.85 to 6.15.

**Q.** What about the pKd ([2]; read-out: KD(alv), unit inferred) of the same compound?
**A.** The pKd was 6.15.

**Q.** With COC(=O)C1C(OC(C)=O)CC2CCC1N2C (stereo not shown) [3.Acetoxy EME, 3-Acetoxy EME] as the compound, how does the pKd [2, 5] read?
**A.** Its pKd is 5.48.

**Q.** With CN1C2CC(S(=O)(=O)c3ccccc3)C1C(C(=O)O)=CC2=O (stereo not shown) [RCS-111-143] as the compound, how does the pKd [2, 5] read?
**A.** Its pKd is 5.48.

**Q.** With COC(=O)C1=C(c2ccccc2)C(=O)C2CC(S(=O)(=O)c3ccccc3)C1N2C (stereo not shown) [RCS-111-202A] as the compound, how does the pKd [2, 5] read?
**A.** Its pKd is 5.55.

**Q.** With CN1C2CC(S(=O)(=O)c3ccccc3)C1C(C(=O)O)=C(c1ccccc1)C2=O (stereo not shown) [RCS-111-218] as the compound, how does the pKd [2, 5] read?
**A.** The pKd was 5.30.

**Q.** Which results are given for CN1[C@@H]2C[C@@H](OC(=O)[C@H](CO)c3ccccc3)C[C@H]1[C@@H]1O[C@@H]12 [scopolamine, reference compound]?
**A.** Morris water maze individual swimming trace, finding of target area (rats): showed no preference; Morris water maze probe test, group result (rats; scopolamine alone (1 mg/kg), group size 10, p<0.05): showed the impairment

**Q.** With CN1C2CCC1C(C(=O)O)C(O)C2 (stereo not shown) [Ecgonine, ecgonine] as the compound, how does the pKd [2, 4] read?
**A.** Its pKd is 5.46.

**Q.** With COC(=O)C1=CC(=O)C2CC(S(=O)(=O)c3ccccc3)C1N2C (stereo not shown) [RCS-111-140A] as the compound, how does the pKd [2, 5] read?
**A.** The pKd was 5.09 to 6.10.

**Q.** What about the pKd ([2]; unit inferred, read-out: KD(alv)) of the same compound?
**A.** Its pKd is 6.10.

**Q.** For COC(=O)C1C(O)CC2CCC1N2C (stereo not shown) [EME, ecgonine methyl ester], which “Alleviation of cocaine inhibition of the nicotinic acetylcholine receptor” value ([1]; cocaine present (200 μM for EME)) is on record?
**A.** Its value is “Alleviation of cocaine inhibition”.

**Q.** And the “Predicted half-life in humans” value ([3]; predicted from persistence in rats)?
**A.** Its value is 6 to 8 h.

**Q.** And the “Absorption after the IP dose” value ([3]; rat, 10 mg/kg IP)?
**A.** The value was “rapid absorption”.

**Q.** And the “Decay of plasma concentrations” value ([3]; rat, 10 mg/kg IP)?
**A.** The value was “biexponential decay”.

**Q.** And the “Time of maximal brain concentration” value ([3]; rat, 10 mg/kg IP)?
**A.** Its value is 2 h.

**Q.** What about the “Time of peak plasma concentration” value ([3]; rat, 10 mg/kg IP) of the same compound?
**A.** Its value is “already peaked at one hour”.

**Q.** And the Brain penetration ([3]; rat, in vivo)?
**A.** The Brain penetration was “readily penetrates the brain”.

**Q.** And the Survival (mice)?
**A.** The Survival was “increased survival and 9/40”.

**Q.** What about the “Morris water maze probe test, group result, reversal of scopolamine impairment” value (rats; EME (10 mg/kg) combined with scopolamine (1 mg/kg), single dose, group size 10) of the same compound?
**A.** The value was “reversed the scopolamine effect; also recorded: restore function impaired by scopolamine”.

**Q.** What about the “Morris water maze probe test, group result versus controls” value (rats; EME alone, single dose, normal healthy rats, group size 10) of the same compound?
**A.** Its value is “no effect on its own”.

**Q.** And the “Morris water maze individual swimming trace, finding of target area” value (rats)?
**A.** The value was “found the target area”.

**Q.** What about the Kp (in vivo) of the same compound?
**A.** Its Kp is roughly 10.

**Q.** What about the pKd [2, 4] of the same compound?
**A.** The pKd was 4.90 to 6.10.
